Experimental data published in US20250114374A1, “BCL-2 INHIBITORS” (Newave Pharmaceutical Inc., priority 2021, published 2025).

What follows are molecules tested on RS4; 11 with G101V mutation (assay: In vitro anti-proliferation assay (ATPlite luminescence) in BCL-2-dependent ALL cell line RS4;11 with G101V mutation). Details: Homo sapiens, RS4-11, 72 h; read-out: RS411-G101V IC50.
Format: cell-based
Method in brief: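 IC50 came from luminescent ATP quantification (ATPlite) following cell lysis. Compound dose ranges were applied for roughly 72 h to about 1×10^4 G101V-mutant RS4;11 cells per well, in 10% FBS medium.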

Row | IC50 [nM] | Compound
1 | 104 | CC(C)Oc1ccccc1[C@@H]1CN([C@H]2COCc3c(F)cc(F)cc32)CCN1C1CC2(CCN(c3ccc(C(=O)NS(=O)(=O)c4cc5c(c([N+](=O)[O-])c4)N[C@H](C4CCOCC4)CO5)c(N4c5cc6cc[nH]c6nc5O[C@H]5COCC[C@@H]54)c3)CC2)C1 [Example 230, 4-(2-((R)-4-((R)-6,8-difluoroisochroman-4-yl)-2-(2-isopropoxyphenyl)piperazin-1-yl)-7-azaspiro[3.5]nonan-7-yl)-N-(((R)-5-nitro-3-(tetrahydro-2H-pyran-4-yl)-3,4-dihydro-2H-benzo[b][1,4]oxazin-7-yl)sulfonyl)-2-((5aS,9aR)-6,7,9,9a-tetrahydro-1H-pyrano[3,4-b]pyrrolo[3′,2′:5,6]pyrido[3,2-e][1,4]oxazin-5(5aH)-yl)benzamide]
2 | 94.7 | CC(C)Oc1ccccc1[C@@H]1CN([C@@H]2COCc3c(F)cc(F)cc32)CCN1C1CC2(CCN(c3ccc(C(=O)NS(=O)(=O)c4cc5c(c([N+](=O)[O-])c4)N[C@H](C4CCOCC4)CO5)c(N4c5cc6cc[nH]c6nc5O[C@H]5COCC[C@@H]54)c3)CC2)C1 [Example 231, 4-(2-((R)-4-((S)-6,8-difluoroisochroman-4-yl)-2-(2-isopropoxyphenyl)piperazin-1-yl)-7-azaspiro[3.5]nonan-7-yl)-N-(((R)-5-nitro-3-(tetrahydro-2H-pyran-4-yl)-3,4-dihydro-2H-benzo[b][1,4]oxazin-7-yl)sulfonyl)-2-((5aS,9aR)-6,7,9,9a-tetrahydro-1H-pyrano[3,4-b]pyrrolo[3′,2′:5,6]pyrido[3,2-e][1,4]oxazin-5(5aH)-yl)benzamide]
3 | 84.2 | COc1cc2c(nc1N1CCOC[C@@H]1C)COC[C@H]2N1CCN(C2CC3(CCN(c4ccc(C(=O)NS(=O)(=O)c5cc6c(c([N+](=O)[O-])c5)N[C@H](C5CCOCC5)CO6)c(N5c6cc7cc[nH]c7nc6O[C@H]6COCC[C@@H]65)c4)CC3)C2)[C@H](c2ccccc2OC(C)C)C1 [Example 232, 4-(2-((R)-2-(2-isopropoxyphenyl)-4-((S)-3-methoxy-2-((S)-3-methylmorpholino)-5,8-dihydro-6H-pyrano[3,4-b]pyridin-5-yl)piperazin-1-yl)-7-azaspiro[3.5]nonan-7-yl)-N-(((R)-5-nitro-3-(tetrahydro-2H-pyran-4-yl)-3,4-dihydro-2H-benzo[b][1,4]oxazin-7-yl)sulfonyl)-2-((5aS,9aR)-6,7,9,9a-tetrahydro-1H-pyrano[3,4-b]pyrrolo[3′,2′:5,6]pyrido[3,2-e][1,4]oxazin-5(5aH)-yl)benzamide]
4 | 4.64 | COc1cc2c(nc1N1CCOC[C@@H]1C)COC[C@@H]2N1CCN(C2CC3(CCN(c4ccc(C(=O)NS(=O)(=O)c5cc6c(c([N+](=O)[O-])c5)N[C@H](C5CCOCC5)CO6)c(N5c6cc7cc[nH]c7nc6O[C@H]6COCC[C@@H]65)c4)CC3)C2)[C@H](c2ccccc2OC(C)C)C1 [Example 233, 4-(2-((R)-2-(2-isopropoxyphenyl)-4-((R)-3-methoxy-2-((S)-3-methylmorpholino)-5,8-dihydro-6H-pyrano[3,4-b]pyridin-5-yl)piperazin-1-yl)-7-azaspiro[3.5]nonan-7-yl)-N-(((R)-5-nitro-3-(tetrahydro-2H-pyran-4-yl)-3,4-dihydro-2H-benzo[b][1,4]oxazin-7-yl)sulfonyl)-2-((5aS,9aR)-6,7,9,9a-tetrahydro-1H-pyrano[3,4-b]pyrrolo[3′,2′:5,6]pyrido[3,2-e][1,4]oxazin-5(5aH)-yl)benzamide]

Same assay, conditions: cellular anti-proliferative IC50, about 72 hours, medium with 10% FBS, ATPlite; read-out: RS411-G101V IC50

Row | Compound | IC50 [nM]
5 | CC(C)Oc1ccccc1[C@@H]1CN(c2ccccn2)CCN1C1CC2(CCN(c3ccc(C(=O)NS(=O)(=O)c4cc5c(c([N+](=O)[O-])c4)N[C@H](C4CCOCC4)CO5)c(N4c5cc6cc[nH]c6nc5O[C@H]5COCC[C@@H]54)c3)CC2)C1 [Example 225, 2-[(3R,8S)-2,5-dioxa-9,15,17-triazatetracyclo[8.7.0.0^{3,8}.0^{12,16}]heptadeca-1(10),11,13,16-tetraen-9-yl]-4-{2-[(2R)-2-(2-isopropoxyphenyl)-4-(pyridin-2-yl)piperazin-1-yl]-7-azaspiro[3.5]nonan-7-yl}-N-[(3R)-5-nitro-3-(oxan-4-yl)-3,4-dihydro-2H-1,4-benzoxazin-7-ylsulfonyl]benzamide] | 180
6 | CC(C)Oc1ccccc1[C@@H]1CN(C2CCC(C)(C)CC2)CCN1C1CC2(CCN(c3ccc(C(=O)NS(=O)(=O)c4cc5c(c([N+](=O)[O-])c4)N[C@H](C4CCOCC4)CO5)c(N4c5cc6cc[nH]c6nc5O[C@H]5COCC[C@@H]54)c3)CC2)C1 (stereo partly drawn) [Example 226, 4-{2-[(2R)-4-(4,4-dimethylcyclohexyl)-2-(2-isopropoxyphenyl)piperazin-1-yl]-7-azaspiro[3.5]nonan-7-yl}-2-[(3R,8S)-2,5-dioxa-9,15,17-triazatetracyclo[8.7.0.0^{3,8}.0^{12,16}]heptadeca-1(10),11,13,16-tetraen-9-yl]-N-[(3R)-5-nitro-3-(oxan-4-yl)-3,4-dihydro-2H-1,4-benzoxazin-7-ylsulfonyl]benzamide] | 62.6
7 | CC(C)Oc1ccccc1[C@@H]1CN(Cc2ccc(F)c(F)c2)CCN1C1CC2(CCN(c3cc(N4c5cc6cc[nH]c6nc5O[C@H]5COCC[C@@H]54)c(C(=O)NS(=O)(=O)c4cc5c(c([N+](=O)[O-])c4)N[C@H](C4CCOCC4)CO5)cc3F)CC2)C1 [Example 227, 4-{2-[(2R)-4-[(3,4-difluorophenyl)methyl]-2-(2-isopropoxyphenyl)piperazin-1-yl]-7-azaspiro[3.5]nonan-7-yl}-2-[(3R,8S)-2,5-dioxa-9,15,17-triazatetracyclo[8.7.0.0^{3,8}.0^{12,16}]heptadeca-1(10),11,13,16-tetraen-9-yl]-5-fluoro-N-[(3R)-5-nitro-3-(oxan-4-yl)-3,4-dihydro-2H-1,4-benzoxazin-7-ylsulfonyl]benzamide] | 119
8 | CC(C)Oc1ccccc1[C@@H]1CN(Cc2ccc(F)c(F)c2)CCN1C1CC2(CCN(c3ncc(C(=O)NS(=O)(=O)c4cc5c(c([N+](=O)[O-])c4)N[C@H](C4CCOCC4)CO5)c(N4c5cc6cc[nH]c6nc5O[C@H]5COCC[C@@H]54)c3F)CC2)C1 [Example 228, 6-{2-[(2R)-4-[(3,4-difluorophenyl)methyl]-2-(2-isopropoxyphenyl)piperazin-1-yl]-7-azaspiro[3.5]nonan-7-yl}-4-[(3R,8S)-2,5-dioxa-9,15,17-triazatetracyclo[8.7.0.0^{3,8}.0^{12,16}]heptadeca-1(10),11,13,16-tetraen-9-yl]-5-fluoro-N-[(3R)-5-nitro-3-(oxan-4-yl)-3,4-dihydro-2H-1,4-benzoxazin-7-ylsulfonyl]pyridine-3-carboxamide] | 202
9 | CC(C)Oc1ccccc1[C@@H]1CN(Cc2ccc(F)c(F)c2)CCN1C1CC2(CCN(c3nc(N4c5cc6cc[nH]c6nc5O[C@H]5COCC[C@@H]54)c(C(=O)NS(=O)(=O)c4cc5c(c([N+](=O)[O-])c4)N[C@H](C4CCOCC4)CO5)cc3F)CC2)C1 [Example 234, 6-{2-[(2R)-4-[(3,4-difluorophenyl)methyl]-2-(2-isopropoxyphenyl)piperazin-1-yl]-7-azaspiro[3.5]nonan-7-yl}-2-[(3R,8S)-2,5-dioxa-9,15,17-triazatetracyclo[8.7.0.0^{3,8}.0^{12,16}]heptadeca-1(10),11,13,16-tetraen-9-yl]-5-fluoro-N-[(3R)-5-nitro-3-(oxan-4-yl)-3,4-dihydro-2H-1,4-benzoxazin-7-ylsulfonyl]pyridine-3-carboxamide] | 181
10 | CC(C)Oc1ccccc1[C@@H]1CN(Cc2ccc(F)c(F)c2)CCN1C1CC2(CCN(c3nc(N4c5cc6cc[nH]c6nc5O[C@H]5COCC[C@@H]54)c(C(=O)NS(=O)(=O)c4cc5c(c([N+](=O)[O-])c4)N[C@H](C4CCOCC4)CO5)cc3F)CC2)C1 [Example 235, 6-{2-[(2R)-4-[(3,4-difluorophenyl)methyl]-2-(2-isopropoxyphenyl)piperazin-1-yl]-7-azaspiro[3.5]nonan-7-yl}-2-[(3R,8S)-2,5-dioxa-9,15,17-triazatetracyclo[8.7.0.0^{3,8}.0^{12,16}]heptadeca-1(10),11,13,16-tetraen-9-yl]-5-fluoro-N-[(3R)-5-nitro-3-(oxan-4-yl)-3,4-dihydro-2H-1,4-benzoxazin-7-ylsulfonyl]pyridine-3-carboxamide] | 2270
11 | CC(C)Oc1ccccc1[C@@H]1CN(Cc2ccc(F)c(F)c2)CCN1C1CC2(CCN(c3ccc(C(=O)NS(=O)(=O)c4cc5c(c([N+](=O)[O-])c4)N[C@H](C4CCOCC4)CO5)c(N4c5cc6c(F)c[nH]c6nc5O[C@H]5COCC[C@@H]54)c3)CC2)C1 [Example 236, 4-{2-[(2R)-4-[(3,4-difluorophenyl)methyl]-2-(2-isopropoxyphenyl)piperazin-1-yl]-7-azaspiro[3.5]nonan-7-yl}-2-[(3R,8S)-13-fluoro-2,5-dioxa-9,15,17-triazatetracyclo[8.7.0.0^{3,8}.0^{12,16}]heptadeca-1(10),11,13,16-tetraen-9-yl]-N-[(3R)-5-nitro-3-(oxan-4-yl)-3,4-dihydro-2H-1,4-benzoxazin-7-ylsulfonyl]benzamide] | 5.52
12 | CC(C)Oc1ccccc1[C@@H]1CN(Cc2ccc(F)c(F)c2)CCN1C1CC2(CCN(c3ccc(C(=O)NS(=O)(=O)c4cc5c(c([N+](=O)[O-])c4)N[C@H](C4CCOCC4)CO5)c(N4c5cc6cc[nH]c6nc5O[C@@H]5COCC[C@H]54)c3)CC2)C1 [Example 239, 4-{2-[(2R)-4-[(3,4-difluorophenyl)methyl]-2-(2-isopropoxyphenyl)piperazin-1-yl]-7-azaspiro[3.5]nonan-7-yl}-2-[(3S,8R)-2,5-dioxa-9,15,17-triazatetracyclo[8.7.0.0^{3,8}.0^{12,16}]heptadeca-1(10),11,13,16-tetraen-9-yl]-N-[(3R)-5-nitro-3-(oxan-4-yl)-3,4-dihydro-2H-1,4-benzoxazin-7-ylsulfonyl]benzamide] | 7.1
